Our source for the IC50 values is patent US20170022171A1, “2,5-DISUBSTITUTED CYCLOPENTANECARBOXYLIC ACIDS AND THEIR USE” (Bayer Pharma Aktiengesellschaft, priority 2014, published 2017).

Holding throughout (assay type): biochemical
The target of assay [1] is T1, MMP-2 (Homo sapiens, UniProt P08253).
T1 construct: purchased R&D Systems 902-MP
T1 sequence (P08253 110-660): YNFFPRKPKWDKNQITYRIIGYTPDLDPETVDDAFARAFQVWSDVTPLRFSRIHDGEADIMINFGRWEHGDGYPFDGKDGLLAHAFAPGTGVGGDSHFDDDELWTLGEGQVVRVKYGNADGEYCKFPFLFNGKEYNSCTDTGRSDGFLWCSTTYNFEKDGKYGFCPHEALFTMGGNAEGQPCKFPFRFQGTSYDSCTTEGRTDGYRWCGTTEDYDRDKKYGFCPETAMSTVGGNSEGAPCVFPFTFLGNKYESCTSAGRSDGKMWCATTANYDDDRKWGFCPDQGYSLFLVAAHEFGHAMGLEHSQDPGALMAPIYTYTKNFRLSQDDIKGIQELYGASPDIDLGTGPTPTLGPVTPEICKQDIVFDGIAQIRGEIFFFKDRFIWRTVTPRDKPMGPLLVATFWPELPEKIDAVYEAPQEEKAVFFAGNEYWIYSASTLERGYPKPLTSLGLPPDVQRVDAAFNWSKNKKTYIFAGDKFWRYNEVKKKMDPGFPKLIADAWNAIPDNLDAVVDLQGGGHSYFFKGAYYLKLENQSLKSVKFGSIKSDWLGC
Nature of the assay: In vitro MMP-2 inhibition test. The method, boiled down: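 APMA-activated recombinant MMP-2 (final e.g. 2 nM) in 50 mM Tris/HCl pH 7.5, 10 mM CaCl2, 150 mM NaCl, 0.05% Brij-35, with compound in DMSO. Started with quenched Mca-PLGL-Dpa(Dnp)-AR-NH2 (e.g. 10 μM); fluorescence (ex 320/em 410 nm) followed e.g. 120 min at 32° C.; IC50 at 50% signal.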

Assay [2] concerns the target T2, MMP-9 (Homo sapiens, UniProt P14780).
T2 construct: purchased R&D Systems 911-MP
Nature of the assay: In vitro MMP-9 inhibition test. Summed up:
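Recombinant MMP-9 was APMA-activated and used at e.g. 0.1 nM final in 50 mM Tris/HCl pH 7.5, 10 mM CaCl2, 150 mM NaCl, 0.05% Brij-35, with compound at e.g. 1 nM to 30 μM. Quenched Mca-Pro-Leu-Gly-Leu-Dpa(Dnp)-Ala-Arg-NH2 substrate (e.g. 10 μM) was followed by fluorescence (ex 320/em 410 nm), e.g. 120 min at 32 °C. IC50 corresponds to 50% signal.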

For assay [3], the target named is T3, mouse MMP-2 (Mus musculus, UniProt P33434).
T3 construct: purchased R&D Systems 924-MP
T3 sequence (P33434 110-662): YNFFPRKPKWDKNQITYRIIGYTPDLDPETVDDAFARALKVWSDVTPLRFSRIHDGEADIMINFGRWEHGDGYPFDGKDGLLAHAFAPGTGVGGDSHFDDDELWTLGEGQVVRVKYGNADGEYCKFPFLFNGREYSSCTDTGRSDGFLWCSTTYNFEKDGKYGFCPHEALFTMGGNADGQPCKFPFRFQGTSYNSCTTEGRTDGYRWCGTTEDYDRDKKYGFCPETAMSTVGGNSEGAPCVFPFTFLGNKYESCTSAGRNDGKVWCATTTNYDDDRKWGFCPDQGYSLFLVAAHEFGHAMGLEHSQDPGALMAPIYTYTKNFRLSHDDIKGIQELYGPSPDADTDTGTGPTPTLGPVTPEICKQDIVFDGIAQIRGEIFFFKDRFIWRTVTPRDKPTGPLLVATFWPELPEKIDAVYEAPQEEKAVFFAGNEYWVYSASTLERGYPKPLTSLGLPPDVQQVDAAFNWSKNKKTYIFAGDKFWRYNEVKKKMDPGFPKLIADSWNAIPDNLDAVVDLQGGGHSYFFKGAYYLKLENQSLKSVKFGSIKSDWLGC
Nature of the assay: In vitro mouse MMP-2 inhibition test. The source says: (§1) The MMP-mediated amidolytic cleavage of a suitable peptide substrate leads to an increase in fluorescent light here too. The signal intensity of the fluorescent light is directly proportional to the enzyme activity. The active concentration of a test compound at which half the enzyme is inhibited (50% signal intensity of the fluorescent light) is reported as the IC50 value.
(§2) Recombinant mouse MMP-2 (from R&D Systems, 924-MP) is chemically activated in accordance with the manufacturer's instructions using APMA. 1 μl of the test compound to be analysed (as a solution in DMSO, suitable concentrations, for example, 1 nM to 30 μM) is pipetted into 24 μl of activated enzyme (final concentration, for example, 0.1 nM) in reaction buffer (50 mM Tris/HCl pH 7.5, 10 mM CaCl2, 150 mM NaCl, 0.05% Brij®-35) in a white 384-hole microtiter plate (MTP). The enzymatic reaction is started by adding the intramolecularly quenched Mca-Pro-Leu-Gly-Leu-Dpa(Dnp)-Ala-Arg-NH2 substrate (final concentration, for example, 10 μM; R&D Systems, ES-001), so as to result in a total test volume of 50 The course of the MMP-2 reaction is measured by measuring the fluorescence intensity (excitation 320 nm, emission 410 nm) over a suitable period of time (for example over 120 min at a temperature of 32° C.).

Assay [4] deals with T4, mouse MMP-9 (Mus musculus, UniProt P41245).
T4 construct: purchased R&D Systems 909-MP
T4 sequence (P41245 108-730): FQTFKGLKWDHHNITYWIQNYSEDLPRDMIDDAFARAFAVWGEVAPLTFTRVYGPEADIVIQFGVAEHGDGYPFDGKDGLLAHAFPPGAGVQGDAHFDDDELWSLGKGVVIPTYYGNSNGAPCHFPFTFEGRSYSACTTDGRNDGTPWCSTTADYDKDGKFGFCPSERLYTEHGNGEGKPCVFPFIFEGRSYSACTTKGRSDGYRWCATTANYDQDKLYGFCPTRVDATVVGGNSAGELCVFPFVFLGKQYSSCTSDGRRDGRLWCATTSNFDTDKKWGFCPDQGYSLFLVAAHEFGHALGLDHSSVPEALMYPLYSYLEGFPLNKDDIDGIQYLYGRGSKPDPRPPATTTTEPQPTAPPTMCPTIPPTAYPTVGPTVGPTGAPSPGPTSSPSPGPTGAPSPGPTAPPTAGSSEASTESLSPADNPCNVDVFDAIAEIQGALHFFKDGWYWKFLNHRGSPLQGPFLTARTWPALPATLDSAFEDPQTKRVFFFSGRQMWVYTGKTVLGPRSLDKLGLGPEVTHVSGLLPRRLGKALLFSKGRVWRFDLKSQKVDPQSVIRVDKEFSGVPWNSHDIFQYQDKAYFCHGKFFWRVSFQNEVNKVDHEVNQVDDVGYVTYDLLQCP
Nature of the assay: In vitro mouse MMP-9 inhibition test.
Source text: as §1
as §2, with “mouse MMP-9” for “mouse MMP-2”, “Systems, 909-MP)” for “Systems, 924-MP)”, “example, 5” for “example, 10”, “the MMP-9” for “the MMP-2”

T2 sequence (P14780 107-707 limits assumed): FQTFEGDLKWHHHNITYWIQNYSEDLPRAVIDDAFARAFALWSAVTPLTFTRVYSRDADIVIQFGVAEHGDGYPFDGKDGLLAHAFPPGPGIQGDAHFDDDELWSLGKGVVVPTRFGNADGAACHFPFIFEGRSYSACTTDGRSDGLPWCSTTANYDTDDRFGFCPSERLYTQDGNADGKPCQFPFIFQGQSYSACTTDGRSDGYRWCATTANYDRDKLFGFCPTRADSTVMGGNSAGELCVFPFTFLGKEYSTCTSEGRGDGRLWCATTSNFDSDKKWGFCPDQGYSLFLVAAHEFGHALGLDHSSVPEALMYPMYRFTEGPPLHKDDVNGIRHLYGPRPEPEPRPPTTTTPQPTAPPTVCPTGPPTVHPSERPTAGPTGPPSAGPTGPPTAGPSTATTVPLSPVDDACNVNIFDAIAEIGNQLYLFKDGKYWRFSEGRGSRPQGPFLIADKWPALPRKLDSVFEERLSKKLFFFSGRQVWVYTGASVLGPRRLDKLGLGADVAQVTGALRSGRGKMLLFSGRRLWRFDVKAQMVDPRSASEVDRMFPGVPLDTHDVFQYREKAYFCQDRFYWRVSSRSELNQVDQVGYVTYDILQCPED

On to `O=C(O)[C@@H]1[C@@H](Cn2nnc3ccc(C(F)(F)F)cc3c2=O)CC[C@H]1C(=O)c1ccc(OCc2cccc(Cl)c2)cc1` (single isomer, unassigned) [Example 23, (+)-(1RS,2RS,5SR)-2-{4-[(3-Chlorobenzyl)oxy]benzoyl}-5-{[4-oxo-6-(trifluoromethyl)-1,2,3-benzotriazin-3(4H)-yl]methyl}cyclopentanecarboxylic acid], for which the IC50 (usually the midpoint of a concentration-inhibition curve) was determined as 1600 nM in assay [1], 270 nM in assay [2], 2400 nM in assay [3] and 1700 nM in assay [4].
For `Cc1ccc2nnn(C[C@H]3CC[C@@H](C(=O)c4ccc(OCc5ccccc5)cc4)[C@@H]3C(=O)O)c(=O)c2c1` (single isomer, unassigned) [Example 92, (+)-(1RS,2RS,5SR)-2-[4-(Benzyloxy)benzoyl]-5-[(6-methyl-4-oxo-1,2,3-benzotriazin-3(4H)-yl)methyl]cyclopentanecarboxylic acid], in that order: 47 nM, 13 nM, 57 nM and 37 nM.
For `O=C(O)[C@H]1[C@H](Cn2nnc3ccc(C(F)(F)F)cc3c2=O)CC[C@@H]1C(=O)c1ccc(OCc2ccccc2)cc1` (racemic) [Example 11, (+/−)-(1RS,2RS,5SR)-2-[4-(Benzyloxy)benzoyl]-5-{[4-oxo-6-(trifluoromethyl)-1,2,3-benzotriazin-3(4H)-yl]methyl}cyclopentanecarboxylic acid], in that order: 210 nM, 18 nM, 250 nM and 61 nM.
For `Cc1ccc2nnn(C[C@H]3CC[C@@H](C(=O)c4ccc(OCc5cccc(OC(F)(F)F)c5)cc4)[C@@H]3C(=O)O)c(=O)c2c1` (single isomer, unassigned) [Example 110, (+)-(1RS,2SR,5RS)-2-[(6-Methyl-4-oxo-1,2,3-benzotriazin-3(4H)-yl)methyl]-5-(4-{[3-(trifluoromethoxy)benzyl]oxy}benzoyl)cyclopentanecarboxylic acid], in that order: 850 nM, 380 nM, 1100 nM and 1100 nM.
With `Cc1ccc2nnn(C[C@@H]3CC[C@H](C(=O)c4ccc(OCc5cccc(OC(F)(F)F)c5)cc4)[C@H]3C(=O)O)c(=O)c2c1` (racemic) [Example 109, (+/−)-(1RS,2SR,5RS)-2-[(6-Methyl-4-oxo-1,2,3-benzotriazin-3(4H)-yl)methyl]-5-(4-{[3-(trifluoromethoxy)benzyl]oxy}benzoyl)cyclopentanecarboxylic acid], the IC50 worked out at 1100 nM in assay [1], 150 nM in assay [2], 1300 nM in assay [3] and 910 nM in assay [4].
For `Cc1ccc2nnn(C[C@@H]3CC[C@H](C(=O)c4ccc(OCc5ccccc5)cc4)[C@H]3C(=O)O)c(=O)c2c1` (racemic) [Example 91, (+/−)-(1RS,2RS,5SR)-2-[4-(Benzyloxy)benzoyl]-5-[(6-methyl-4-oxo-1,2,3-benzotriazin-3(4H)-yl)methyl]cyclopentanecarboxylic acid], in that order: 100 nM, 21 nM, 95 nM and 72 nM.
`Cc1ccc2nnn(C[C@H]3CC[C@@H](C(=O)c4ccc(OCc5cccc(C(F)(F)F)c5)cc4)[C@@H]3C(=O)O)c(=O)c2c1` (single isomer, unassigned) [Example 101, (+)-(1RS,2SR,5RS)-2-[(6-Methyl-4-oxo-1,2,3-benzotriazin-3(4H)-yl)methyl]-5-(4-{[3-(trifluoromethyl)benzyl]oxy}benzoyl)cyclopentanecarboxylic acid]: the IC50 in assay [1] came out at 380 nM; in assay [2] it was 100 nM; in assay [3] it was 490 nM; in assay [4], 400 nM.
For `O=C(O)[C@H]1[C@H](Cn2nnc3ccc(C(F)(F)F)cc3c2=O)CC[C@@H]1C(=O)c1ccc(OCCCc2ccccc2)cc1` (racemic) [Example 39, (+/−)-(1RS,2SR,5RS)-2-{[4-Oxo-6-(trifluoromethyl)-1,2,3-benzotriazin-3(4H)-yl]methyl}-5-[4-(3-phenylpropoxy)benzoyl]cyclopentanecarboxylic acid], in that order: 4600 nM, 780 nM, 3800 nM and over 40000 nM.
Regarding `O=C(O)[C@H]1[C@H](Cn2nnc3ccc(C(F)(F)F)cc3c2=O)CC[C@@H]1C(=O)c1ccc(OCCCC2CCCCC2)cc1` (racemic) [Example 56, (+/−)-(1RS,2RS,5SR)-2-{4-(3-Cyclohexylpropoxy)benzoyl}-5-{[4-oxo-6-(trifluoromethyl)-1,2,3-benzotriazin-3(4H)-yl]methyl}cyclopentanecarboxylic acid], the IC50 is 2800 nM in assay [1], 4900 nM in assay [2], 5000 nM in assay [3] and over 40000 nM in assay [4].
The corresponding values for `Cc1cccc(COc2ccc(C(=O)[C@H]3CC[C@@H](Cn4nnc5ccc(C)cc5c4=O)[C@@H]3C(=O)O)cc2)c1` (racemic) [Example 97, (+/−)-(1RS,2RS,5SR)-2-{4-[(3-Methylbenzyl)oxy]benzoyl}-5-[(6-methyl-4-oxo-1,2,3-benzotriazin-3(4H)-yl)methyl]cyclopentanecarboxylic acid] are 2300 nM, 740 nM, 1900 nM and 1600 nM.
